Laboratory results taken from PubChem BioAssay (NCI).
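Each compound was tested at five concentrations against cells in 96-well plates for 48 hours. TGI marks complete inhibition of growth.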

Key:
Assay in all cases: NCI-60 cell line screen, 48 h
[1] = test system: HL-60(TB) leukemia
[2] = test system: SN12C renal
[3] = test system: UACC-257 melanoma
[4] = test system: HT29 colon
[5] = test system: SK-MEL-5 melanoma
[6] = test system: MDA-MB-435
[7] = test system: OVCAR-5 ovarian
[8] = test system: OVCAR-8 ovarian
[9] = test system: NCI-H23 lung
[10] = test system: RPMI-8226 leukemia

Structure (SMILES) | TGI [1] [µM] | TGI [2] [µM] | TGI [3] [µM] | TGI [4] [µM] | TGI [5] [µM] | TGI [6] [µM] | TGI [7] [µM] | TGI [8] [µM] | TGI [9] [µM] | TGI [10] [µM]
CC(C)Oc1cc2c(cc1O)CC[C@@H]1[C@@H]2CC[C@]2(C)[C@@H](O)CC[C@@H]12 | > 38.1 | 29.1 | 24.6 | 23 | 12.8 | 10.9 | 60.7 | 60.6 | 37.4 | 35.7
COC(C[C@H]1CCCC[C@]1(O)/C(=C\CO[Si](C(C)C)(C(C)C)C(C)C)Sc1ccccc1)OC | > 100 | > 100 | > 100 | > 100 | > 100 | > 100 | > 100 | > 100 | > 100 | 38.4
COCCN(C(=O)c1ccccc1)C1CCC(=O)c2[nH]c3ccccc3c21 (stereo not given) | 58.8 | 21.1 | > 66.7 | 24.3 | 20.2 | 17.5 | 30.6 | 21.3 | 36.9 | 58.6
Clc1ccc(Cc2nc3ccccc3nc2-c2cccc(Cl)c2)cc1 | 6.29 | 8.63 | 39.3 | 6 | 18.1 | 4.09 | 21.2 | 14.2 | 27 | 2.14
CN(c1ccc(Cl)cc1)S(=O)(=O)c1ccccc1 | > 100 | > 100 | > 100 | > 100 | 47 | > 100 | > 100 | > 100 | > 100 | > 100
